This assay relates to hα3β4 nAChRs. It is filed as cell-based, human.

On to “Czon1107-G1R: Arg-scan analogue of Czon1107 (RFRSPCPPFC)”, for which the “inhibition of ACh-evoked current amplitude” value is ~ 50%. With “Czon1107-P7R: Arg-scan analogue of Czon1107 (GFRSPCRPFC)”, the “inhibition of ACh-evoked current amplitude” value was ~ 50%. For the substance “Czon1107-F9A: Ala-scan analogue of Czon1107 (GFRSPCPPAC)”, the “activity at hα3β4 nAChRs compared with wild-type Czon1107 (in words)” value was “slight potency decrease”. On to “Czon1107-P5R: Arg-scan analogue of Czon1107 (GFRSRCPPFC)”, for which the “activity at hα3β4 nAChRs compared with wild-type Czon1107 (in words)” value is recorded as “No significant change in activity”. Take “Czon1107-P8R: Arg-scan analogue of Czon1107 (GFRSPCPRFC)”: the “activity at hα3β4 nAChRs compared with wild-type Czon1107 (in words)” value is “No significant change in activity”.

(Values after PMC9409646 (Marine Drugs, 2022).)
